Assay results reported in patent publication US20210403485A1, “PYRAZOLOPYRIMIDINE DERIVATIVE AS SELECTIVE TRK INHIBITOR” (SHANDONG LUYE PHARMACEUTICAL CO., LTD., priority 2018, published 2021).

Legend:
[1] = target: T1, BaF3 ETV6-NTRK3-G623R (Homo sapiens, UniProt Q16288, G623R, cells depend on it); assay: Inhibitory activity against cell proliferation (CellTiter-Glo, 72 hours); format: cell-based; conditions: read-out: Half maximal inhibitory concentration IC50 of cells, BaF3 ETV6-NTRK3-G623R
T1 construct: fused on or other part: N-terminal part of ETV6 (TEL) as fusion partner (part of the key); P41212 (Transcription factor ETV6)
Experimental: (§1) Adenosine Triphosphate (ATP) is an energy carrier commonly used in various life activities in nature, and is the minimum unit for energy storage and transfer. The CellTiter-Glo™ cell viability assay kit uses luciferase as an assay agent, which requires the involvement of ATP in luminescence. The CellTiter-Glo™ reagent is added into cell culture medium to measure the luminescence value. The luminescence signal is directly proportional to the amount of ATP in the system, and the ATP is positively correlated with the number of viable cells. Therefore, the proliferation of cells can be detected by detecting the ATP content using the CellTiter-Glo kit. In this test, the cell lines used are Ba/F3 LMNA-NTRK1-WT, Ba/F3 LMNA-NTRK1-F589L, BaF3 LMNA-NTRK1-G595R, BaF3 LMNA-NTRK1-G667A, BaF3 ETV6-NTRK3-WT, BaF3 ETV6-NTRK3-G623R, and Ba/F3 SLC34A2-ROS1-WT stable cell strains, 5000 cells/well.
(§2) a) Cells in the logarithmic growth phase were collected and counted using a […]. The cell viability was detected by the trypan blue exclusion method, and the cell viability was kept over 90%.
(§3) b) The cell concentration was adjusted; 90 μL of the cell suspension was added to a 96-well plate.
c) Cells in the 96-well plate were incubated overnight at 37° C. with 5% CO2 and 95% humidity.
(§4) a) A 10-fold compound solution was prepared, with the highest concentration being 10 μM (a total of 9 concentrations, 3-fold dilution). 10 μL of compound solution was added to each well of a 96-well plate inoculated with cells, and three duplicate wells were set for each compound concentration.
b) The cells in the 96-well plate added with compound were incubated for 72 hours at 37° C. with 5% CO2 and 95% humidity, followed by the CTG (CellTiter-Glo) analysis.
(§5) a) The CTG reagent was thawed and the cell plate was equilibrated to room temperature for 30 minutes.
(§6) b) An equal volume of CTG solution was added to each well.
(§7) c) The plate was shaken on an orbital shaker for 5 minutes to lyse the cells.
(§8) d) The cell plate was placed at room temperature for 20 minutes to stabilize the luminescence signal.
(§9) e) The luminescence value was read.
(§10) The data were analyzed using GraphPad Prism 5.0 software, fitted with nonlinear S-curve regression to give dose-response curves, and IC50 values were calculated therefrom.

[2] = target: T2, TrkC (Homo sapiens, UniProt Q16288); assay: Kinase inhibitory activity (33P-ATP, filtration-binding method, Reaction Biology Corp.); format: biochemical; conditions: read-out: Half maximal inhibitory concentration IC50 for kinases, TrkC
T2 construct: purchased Reaction Biology Corp
Experimental: (§11) The mixture was incubated at room temperature for 20 minutes, added with ^33P-ATP at a certain concentration to start the reaction, and then incubated at room temperature for 120 minutes. Finally, the radioactivity of the reactant was detected by the filtration-binding method. The final kinase activity was expressed as the ratio of the remaining kinase activity in the test sample to the kinase activity of the DMSO control. The dose-response curves were fitted and IC50 values were calculated by GraphPad software.

[3] = target: T3, Ros1 (Homo sapiens, UniProt P08922); assay: as above; format: biochemical; conditions: read-out: Half maximal inhibitory concentration IC50 for kinases, Ros1
T3 construct: purchased Reaction Biology Corp
Experimental: as §11

[4] = target: T4, TrkA (Homo sapiens, UniProt P04629); assay: as above; format: biochemical; conditions: read-out: Half maximal inhibitory concentration IC50 for kinases, TrkA
T4 construct: purchased Reaction Biology Corp
Experimental: as §11

[5] = target: T5, TrkA-G595R (Homo sapiens, UniProt P04629, G595R); assay: as above; format: biochemical; conditions: read-out: Half maximal inhibitory concentration IC50 for kinases, TrkA-G595R
T5 construct: purchased Reaction Biology Corp
Experimental: as §11

[6] = target: T6, ALK (Homo sapiens, UniProt Q9UM73); assay: as above; format: biochemical; conditions: read-out: Half maximal inhibitory concentration IC50 for kinases, ALK
T6 construct: purchased Reaction Biology Corp
Experimental: as §11

[7] = target: T7, TrkA-G667C (Homo sapiens, UniProt P04629, G667C); assay: as above; format: biochemical; conditions: read-out: Half maximal inhibitory concentration IC50 for kinases, TrkA-G667C
T7 construct: purchased Reaction Biology Corp
Experimental: as §11

[8] = target: T8, BaF3 LMNA-NTRK1-G595R (Homo sapiens, UniProt P04629, G595R, cells depend on it); assay: Inhibitory activity against cell proliferation (CellTiter-Glo, 72 hours); format: cell-based; conditions: read-out: Half maximal inhibitory concentration IC50 of cells, BaF3 LMNA-NTRK1-G595R
T8 construct: fused on or other part: N-terminal part of LMNA as fusion partner (part of the key); P02545 (Prelamin-A/C)
Experimental: as §1, with “kit.” for “kit. In this test, the cell lines used are Ba/F3 LMNA-NTRK1-WT, Ba/F3 LMNA-NTRK1-F589L, BaF3 LMNA-NTRK1-G595R, BaF3 LMNA-NTRK1-G667A, BaF3 ETV6-NTRK3-WT, BaF3 ETV6-NTRK3-G623R, and Ba/F3 SLC34A2-ROS1-WT stable cell strains, 5000 cells/well.”
as §2, §3, §4, §5, §6, §7, §8, §9, §10

[9] = target: T9, Ba/F3 LMNA-NTRK1-WT (Homo sapiens, UniProt P04629); assay: as above; format: cell-based; conditions: read-out: Half maximal inhibitory concentration IC50 of cells, Ba/F3 LMNA-NTRK1-WT
T9 construct: fused on or other part: N-terminal part of LMNA as fusion partner (part of the key); P02545 (Prelamin-A/C)
Experimental: as §1, with “kit.” for “kit. In this test, the cell lines used are Ba/F3 LMNA-NTRK1-WT, Ba/F3 LMNA-NTRK1-F589L, BaF3 LMNA-NTRK1-G595R, BaF3 LMNA-NTRK1-G667A, BaF3 ETV6-NTRK3-WT, BaF3 ETV6-NTRK3-G623R, and Ba/F3 SLC34A2-ROS1-WT stable cell strains, 5000 cells/well.”
as §2, §3, §4, §5, §6, §7, §8, §9, §10

[10] = target: T10, Ba/F3 SLC34A2-ROS1-WT (Homo sapiens, UniProt P08922); assay: as above; format: cell-based; conditions: read-out: Half maximal inhibitory concentration IC50 of cells, Ba/F3 SLC34A2-ROS1-WT
T10 construct: fused on or other part: N-terminal part of SLC34A2 as fusion partner (part of the key); O95436 (Sodium-dependent phosphate transport protein 2B)
Experimental: as §1, with “kit.” for “kit. In this test, the cell lines used are Ba/F3 LMNA-NTRK1-WT, Ba/F3 LMNA-NTRK1-F589L, BaF3 LMNA-NTRK1-G595R, BaF3 LMNA-NTRK1-G667A, BaF3 ETV6-NTRK3-WT, BaF3 ETV6-NTRK3-G623R, and Ba/F3 SLC34A2-ROS1-WT stable cell strains, 5000 cells/well.”
as §2, §3, §4, §5, §6, §7, §8, §9, §10

[11] = target: T11, BaF3 ETV6-NTRK3-WT (Homo sapiens, UniProt Q16288); assay: as above; format: cell-based; conditions: read-out: Half maximal inhibitory concentration IC50 of cells, BaF3 ETV6-NTRK3-WT
T11 construct: fused on or other part: N-terminal part of ETV6 (TEL) as fusion partner (part of the key); P41212 (Transcription factor ETV6)
Experimental: as §1, with “kit.” for “kit. In this test, the cell lines used are Ba/F3 LMNA-NTRK1-WT, Ba/F3 LMNA-NTRK1-F589L, BaF3 LMNA-NTRK1-G595R, BaF3 LMNA-NTRK1-G667A, BaF3 ETV6-NTRK3-WT, BaF3 ETV6-NTRK3-G623R, and Ba/F3 SLC34A2-ROS1-WT stable cell strains, 5000 cells/well.”
as §2, §3, §4, §5, §6, §7, §8, §9, §10

[12] = target: T12, BaF3 LMNA-NTRK1-G667A (Homo sapiens, UniProt P04629, G667A, cells depend on it); assay: as above; format: cell-based; conditions: read-out: Half maximal inhibitory concentration IC50 of cells, BaF3 LMNA-NTRK1-G667A
T12 construct: fused on or other part: N-terminal part of LMNA as fusion partner (part of the key); P02545 (Prelamin-A/C)
Experimental: as §1, with “kit.” for “kit. In this test, the cell lines used are Ba/F3 LMNA-NTRK1-WT, Ba/F3 LMNA-NTRK1-F589L, BaF3 LMNA-NTRK1-G595R, BaF3 LMNA-NTRK1-G667A, BaF3 ETV6-NTRK3-WT, BaF3 ETV6-NTRK3-G623R, and Ba/F3 SLC34A2-ROS1-WT stable cell strains, 5000 cells/well.”
as §2, §3, §4, §5, §6, §7, §8, §9, §10

[13] = target: T13, Ba/F3 LMNA-NTRK1-F589L (Homo sapiens, UniProt P04629, F589L, cells depend on it); assay: as above; format: cell-based; conditions: read-out: Half maximal inhibitory concentration IC50 of cells, Ba/F3 LMNA-NTRK1-F589L
T13 construct: fused on or other part: N-terminal part of LMNA as fusion partner (part of the key); P02545 (Prelamin-A/C)
Experimental: as §1, with “kit.” for “kit. In this test, the cell lines used are Ba/F3 LMNA-NTRK1-WT, Ba/F3 LMNA-NTRK1-F589L, BaF3 LMNA-NTRK1-G595R, BaF3 LMNA-NTRK1-G667A, BaF3 ETV6-NTRK3-WT, BaF3 ETV6-NTRK3-G623R, and Ba/F3 SLC34A2-ROS1-WT stable cell strains, 5000 cells/well.”
as §2, §3, §4, §5, §6, §7, §8, §9, §10

T4 sequence (P04629 33-796): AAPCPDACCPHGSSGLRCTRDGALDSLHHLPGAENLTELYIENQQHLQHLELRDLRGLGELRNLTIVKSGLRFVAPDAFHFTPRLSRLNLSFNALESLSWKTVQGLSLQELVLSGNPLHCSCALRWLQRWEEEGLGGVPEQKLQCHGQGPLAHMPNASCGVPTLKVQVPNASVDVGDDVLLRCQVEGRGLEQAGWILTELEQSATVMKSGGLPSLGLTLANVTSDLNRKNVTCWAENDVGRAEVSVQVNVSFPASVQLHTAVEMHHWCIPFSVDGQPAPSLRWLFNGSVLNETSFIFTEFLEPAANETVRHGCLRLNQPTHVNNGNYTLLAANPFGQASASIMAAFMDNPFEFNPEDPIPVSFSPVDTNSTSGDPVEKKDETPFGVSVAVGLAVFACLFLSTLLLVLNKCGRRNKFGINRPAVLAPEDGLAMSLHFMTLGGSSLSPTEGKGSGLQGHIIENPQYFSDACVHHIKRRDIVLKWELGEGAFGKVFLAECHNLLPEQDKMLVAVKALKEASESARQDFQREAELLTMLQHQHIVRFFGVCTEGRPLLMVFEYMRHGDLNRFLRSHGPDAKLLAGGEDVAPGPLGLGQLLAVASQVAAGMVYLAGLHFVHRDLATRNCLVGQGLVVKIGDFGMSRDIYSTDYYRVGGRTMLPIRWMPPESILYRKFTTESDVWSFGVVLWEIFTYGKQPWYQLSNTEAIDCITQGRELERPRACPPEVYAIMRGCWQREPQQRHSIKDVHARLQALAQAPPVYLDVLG
T2 sequence (Q16288 32-839): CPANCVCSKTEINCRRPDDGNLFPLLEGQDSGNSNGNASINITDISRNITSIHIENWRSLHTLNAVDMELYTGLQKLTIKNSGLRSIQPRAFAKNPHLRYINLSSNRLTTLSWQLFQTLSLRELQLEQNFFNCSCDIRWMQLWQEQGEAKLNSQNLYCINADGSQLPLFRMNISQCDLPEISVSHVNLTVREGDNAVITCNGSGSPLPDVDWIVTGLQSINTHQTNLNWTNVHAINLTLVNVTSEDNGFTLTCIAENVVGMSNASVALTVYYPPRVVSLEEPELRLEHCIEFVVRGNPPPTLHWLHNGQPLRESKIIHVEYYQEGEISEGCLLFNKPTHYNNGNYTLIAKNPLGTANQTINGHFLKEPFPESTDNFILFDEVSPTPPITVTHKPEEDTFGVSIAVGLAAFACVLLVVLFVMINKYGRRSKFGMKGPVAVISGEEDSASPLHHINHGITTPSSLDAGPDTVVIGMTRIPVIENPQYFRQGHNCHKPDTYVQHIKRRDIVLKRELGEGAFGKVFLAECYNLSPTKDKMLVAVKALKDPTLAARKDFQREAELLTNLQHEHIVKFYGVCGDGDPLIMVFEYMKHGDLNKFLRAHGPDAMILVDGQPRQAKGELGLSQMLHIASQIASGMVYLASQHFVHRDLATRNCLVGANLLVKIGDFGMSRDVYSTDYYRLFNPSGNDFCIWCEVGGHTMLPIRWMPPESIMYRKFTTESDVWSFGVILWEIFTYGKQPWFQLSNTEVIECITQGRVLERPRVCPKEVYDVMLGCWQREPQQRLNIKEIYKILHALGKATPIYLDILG
T7 sequence (P04629 33-796 G667C): as the sequence (P04629 33-796) above, with G635C counted along it
T9 sequence (P04629 whole entry, change not shown, the tested form may be a part): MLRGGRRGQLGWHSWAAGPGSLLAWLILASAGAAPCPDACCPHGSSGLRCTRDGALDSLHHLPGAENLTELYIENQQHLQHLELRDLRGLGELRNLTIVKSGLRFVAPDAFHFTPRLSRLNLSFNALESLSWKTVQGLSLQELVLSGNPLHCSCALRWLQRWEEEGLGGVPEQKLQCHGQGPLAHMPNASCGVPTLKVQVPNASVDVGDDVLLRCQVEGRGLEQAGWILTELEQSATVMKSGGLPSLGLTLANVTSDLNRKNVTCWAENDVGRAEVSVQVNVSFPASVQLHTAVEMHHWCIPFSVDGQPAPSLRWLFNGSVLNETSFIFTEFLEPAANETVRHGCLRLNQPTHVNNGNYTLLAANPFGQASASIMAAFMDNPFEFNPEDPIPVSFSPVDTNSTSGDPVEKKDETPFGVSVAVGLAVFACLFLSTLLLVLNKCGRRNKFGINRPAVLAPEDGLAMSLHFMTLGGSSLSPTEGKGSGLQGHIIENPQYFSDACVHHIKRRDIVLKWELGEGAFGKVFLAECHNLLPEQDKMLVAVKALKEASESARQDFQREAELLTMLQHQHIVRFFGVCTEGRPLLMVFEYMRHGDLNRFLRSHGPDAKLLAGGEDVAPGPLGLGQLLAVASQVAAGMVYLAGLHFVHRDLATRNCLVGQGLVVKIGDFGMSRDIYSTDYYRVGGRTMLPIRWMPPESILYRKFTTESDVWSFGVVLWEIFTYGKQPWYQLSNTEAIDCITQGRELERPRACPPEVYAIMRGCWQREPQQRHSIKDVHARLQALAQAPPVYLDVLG
T1 sequence (Q16288 whole entry G623R, the tested form may be a part): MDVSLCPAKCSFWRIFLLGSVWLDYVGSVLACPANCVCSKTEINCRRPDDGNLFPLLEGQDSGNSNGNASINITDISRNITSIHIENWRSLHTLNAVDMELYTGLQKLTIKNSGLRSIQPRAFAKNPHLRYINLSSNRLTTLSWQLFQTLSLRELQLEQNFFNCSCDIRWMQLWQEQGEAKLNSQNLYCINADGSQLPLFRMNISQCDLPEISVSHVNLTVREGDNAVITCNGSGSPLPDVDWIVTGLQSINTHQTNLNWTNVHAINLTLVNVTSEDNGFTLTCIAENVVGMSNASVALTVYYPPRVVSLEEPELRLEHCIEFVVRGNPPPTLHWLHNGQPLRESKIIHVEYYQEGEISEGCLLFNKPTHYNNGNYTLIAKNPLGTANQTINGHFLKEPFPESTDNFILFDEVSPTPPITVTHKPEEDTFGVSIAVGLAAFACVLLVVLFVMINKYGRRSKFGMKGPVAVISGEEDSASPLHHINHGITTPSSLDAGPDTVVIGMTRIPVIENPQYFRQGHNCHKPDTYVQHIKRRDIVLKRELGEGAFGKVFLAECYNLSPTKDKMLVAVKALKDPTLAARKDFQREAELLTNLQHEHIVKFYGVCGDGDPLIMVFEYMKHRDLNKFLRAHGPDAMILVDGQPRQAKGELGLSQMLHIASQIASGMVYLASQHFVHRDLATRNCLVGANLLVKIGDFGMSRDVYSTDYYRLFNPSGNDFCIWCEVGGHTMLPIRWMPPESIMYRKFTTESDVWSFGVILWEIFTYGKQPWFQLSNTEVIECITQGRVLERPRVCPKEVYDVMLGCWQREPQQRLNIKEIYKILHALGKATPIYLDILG
T5 sequence (P04629 33-796 G595R): as the sequence (P04629 33-796) above, with G563R counted along it

Row | GI50 [1] | IC50 [2] | IC50 [3] | IC50 [4] | IC50 [5] | IC50 [6] | IC50 [7] | GI50 [8] | GI50 [9] | GI50 [10] | GI50 [11] | GI50 [12] | GI50 [13] | Compound
1 | 5.8 nM | 0.2 nM | 0.2 nM | 3.2 nM | 2.1 nM | 18.5 nM | 0.7 nM | 0.4 nM | 0.2 nM | 12.6 nM |  |  |  | O=C1NC2(CC2)COc2ccc(F)cc2C2CCCCN2c2ccn3ncc1c3n2 (single isomer, unassigned) [WX002A]
2 | 13.1 nM | 0.1 nM | 2.2 nM | 0.6 nM | 0.2 nM | 901 nM | 0.1 nM | 6.4 nM | 0.9 nM | 770 nM | 4.1 nM | 1.2 nM | 100 nM | C[C@@H]1COC[C@@H]2c3cc(F)cnc3OCC3(CC3)NC(=O)c3cnn4ccc(nc34)N12 [WX007]
3 |  |  |  | > 1000 nM |  |  |  |  |  |  |  |  |  | O=C1N[C@@H]2COC[C@@H]2Oc2ncc(F)cc2[C@@H]2COCCN2c2ccn3ncc1c3n2 [WX005B]
